Reference: the supplement of paper PMC10331698
± gives the standard deviation of the averaged measurements.

Legend:
Assay in all cases: level (log10 ratio to DMSO vehicle control); higher = higher biomarker level / cell amount than vehicle control
Details in all cases: in DMSO
[1] = compound: C=CC(=O)OCCC(F)(F)C(F)(F)C(F)(F)C(F)(F)F [2-(Perfluorobutyl)ethyl acrylate]
Experimental: (§1)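 BioMAP Diversity Plus panel of 12 human primary cell co-culture systems (3C, 4H, LPS, SAg, BT, BF4T, BE3C, CASM3C, HDF3CGF, KF3CT, MyoF, Mphg). Compounds were added 1 h before stimulation and left for 24 h (MyoF 48 h; BT 72 h for soluble read-outs or 6 d for IgG). Biomarkers were read by ELISA, cytotoxicity by SRB, PBMC viability and proliferation by Alamar Blue. Each well value was divided by the mean of 8 DMSO control wells on the same plate and log10 transformed; duplicate blinded samples were tested at 4 concentrations.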

[2] = compound: N=C(N)C(F)(F)C(F)(F)C(F)(F)C(F)(F)C(F)(F)C(F)(F)C(F)(F)F [Perfluorooctanamidine]
Experimental: as §1

[3] = compound: O=C(O)C(F)(F)C(F)(F)C(F)(F)C(F)(F)C(F)(F)C(F)(F)C(F)(F)C(F)(F)C(F)(F)C(F)(F)C(F)(F)C(F)(F)F [Perfluorotridecanoic acid]
Experimental: as §1

[4] = compound: O=C(O)C(F)(F)C(F)(F)C(F)(F)C(F)(F)C(F)(F)F [Perfluorohexanoic acid]
Experimental: as §1

[5] = compound: O=P(O)(O)CCC(F)(F)C(F)(F)C(F)(F)C(F)(F)C(F)(F)C(F)(F)C(F)(F)C(F)(F)F [((Perfluorooctyl)ethyl)phosphonic acid]
Experimental: as §1

[6] = compound: O=S(=O)(O)C(F)(F)C(F)(F)C(F)(F)C(F)(F)C(F)(F)C(F)(F)C(F)(F)C(F)(F)F [Potassium perfluorooctanesulfonate]
Experimental: as §1

Test System | level (log10) ([1]; 6700 nM) | level (log10) ([1]; 20000 nM) | level (log10) ([1]; 60000 nM) | level (log10) ([2]; 6700 nM) | level (log10) ([2]; 20000 nM) | level (log10) ([2]; 60000 nM) | level (log10) ([3]; 1500 nM) | level (log10) ([3]; 4400 nM) | level (log10) ([3]; 13000 nM) | level (log10) ([3]; 40000 nM) | level (log10) ([4]; 6700 nM) | level (log10) ([4]; 20000 nM) | level (log10) ([4]; 60000 nM) | level (log10) ([5]; 6700 nM) | level (log10) ([5]; 20000 nM) | level (log10) ([5]; 60000 nM) | level (log10) ([6]; 6700 nM) | level (log10) ([6]; 20000 nM) | level (log10) ([6]; 60000 nM)
HDF3CGF:SRB | -0.0125 ± 0.057 | -0.092 ± 0.073 | -0.0805 ± 0.06 | -0.01 ± 0.017 | 0.0155 ± 0.0035 | -0.048 | -0.0195 ± 0.035 | -0.007 ± 0.021 | 0.063 ± 0.054 | 0.067 ± 0.075 | 0.0135 ± 0.013 | 0.0305 ± 0.022 | -0.0055 ± 0.0092 | 0.0285 ± 0.021 | -0.0095 ± 0.033 | -0.011 ± 0.033 | -0.033 ± 0.052 | -0.005 ± 0.052 | -0.0695 ± 0.053
MyoF:Collagen I | 0.0105 ± 0.016 | 0.01 ± 0.03 | -0.002 ± 0.025 | -0.0005 ± 0.013 | 0.007 ± 0.0085 | 0.047 | -0.0045 ± 0.019 | -0.0115 ± 0.016 | -0.016 ± 0.025 | -0.213 ± 0.037 | -0.01 ± 0.0057 | -0.0095 ± 0.0092 | -0.0025 ± 0.011 | -0.021 ± 0.0014 | -0.014 ± 0.0057 | -0.009 ± 0.035 | -0.0145 ± 0.023 | -0.0095 ± 0.013 | 0.0075 ± 0.021
MyoF:CXCL8/IL-8 | -0.0045 ± 0.0078 | -0.0025 ± 0.016 | 0.02 ± 0.025 | -0.003 ± 0.041 | 0.03 ± 0.0099 | 0.043 | -0.01 ± 0.023 | -0.0295 ± 0.0078 | -0.0275 ± 0.0021 | -0.025 ± 0.0042 | -0.0015 ± 0.016 | -0.0075 ± 0.026 | -0.015 ± 0.05 | 0.0105 ± 0.026 | 0.025 ± 0.011 | 0.038 ± 0.0028 | -0.006 ± 0.023 | -0.0455 ± 0.023 | -0.0385 ± 0.0035
KF3CT:CXCL10/IP-10 | -0.009 ± 0.0057 | -0.0125 ± 0.022 | -0.0285 ± 0.0078 | 0.012 ± 0.042 | 0.0025 ± 0.04 | 0.04 | -0.009 ± 0.0071 | -0.011 ± 0.0028 | -0.015 ± 0.017 | -0.06 ± 0.044 | 0.0045 ± 0.0092 | 0.0045 ± 0.005 | 0.017 ± 0.0014 | 0.0105 ± 0.028 | 0.023 ± 0.013 | 0.0205 ± 0.005 | -0.0075 ± 0.032 | -0.0015 ± 0.016 | -0.0335 ± 0.012
KF3CT:PAI-I | -0.017 ± 0.0071 | -0.005 ± 0.023 | -0.008 ± 0.0085 | -0.001 ± 0.033 | -0.017 ± 0.044 | -0.008 | -0.006 ± 0.028 | -0.0155 ± 0.015 | -0.0135 ± 0.023 | -0.052 ± 0.027 | -0.0075 ± 0.00071 | -0.0175 ± 0.0035 | -0.0085 ± 0.00071 | -0.037 ± 0.035 | -0.055 ± 0.02 | -0.0595 ± 0.03 | -0.044 ± 0.027 | -0.053 ± 0.0071 | -0.125 ± 0.024
KF3CT:uPA | -0.012 ± 0.0099 | 0.0155 ± 0.00071 | -0.0225 ± 0.00071 | 0.0015 ± 0.0021 | 0.0165 ± 0.0035 | 0.01 | 0.0005 ± 0.018 | -0.003 ± 0.011 | 0.0035 ± 0.015 | -0.0035 ± 0.011 | 0.0125 ± 0.0064 | -0.004 ± 0.0085 | 0.016 ± 0.0099 | 0.0065 ± 0.018 | 0.003 ± 0.016 | 0.0025 ± 0.0092 | -0.011 ± 0.0099 | -0.004 ± 0.011 | -0.027
3C:CD62E/E-Selectin | -0.016 ± 0.0028 | -0.059 ± 0.0014 | -0.163 ± 0.05 | -0.0045 ± 0.023 | -0.005 ± 0.027 | -0.039 | -0.0015 ± 0.019 | -0.0045 ± 0.0064 | -0.0005 ± 0.011 | -0.01 ± 0.018 | -0.0065 ± 0.0092 | -0.007 ± 0.011 | 0.0145 ± 0.029 | -0.011 ± 0.025 | -0.032 ± 0.021 | -0.056 ± 0.011 | -0.0025 ± 0.015 | 0.0195 ± 0.046 | 0.063 ± 0.035
